Biological target: T1, F508del (Homo sapiens, UniProt P13569, DEL508-508)
T1 construct: expressed in transfected cells
Assay: Protocol 2: FRET membrane potential optical assay (VIPR), identification of correction compounds
Type: cell-based
Conditions: F508del CFTR modulator activity; compounds of Table 1; read-out: EC30
Summary of the method: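 NIH3T3 mouse fibroblasts stably expressing F508del-CFTR incubated with compound 16 h at 37 °C in serum-free medium, then loaded with CC2-DMPE/DiSBAC2(3) FRET dyes. Channel activated with 10 μM forskolin plus 20 μM genistein in Cl⁻-free (gluconate) bath; depolarisation from Cl⁻ efflux read on VIPR II.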

T1 sequence (P13569 with tags, fused parts or gaps DEL508-508): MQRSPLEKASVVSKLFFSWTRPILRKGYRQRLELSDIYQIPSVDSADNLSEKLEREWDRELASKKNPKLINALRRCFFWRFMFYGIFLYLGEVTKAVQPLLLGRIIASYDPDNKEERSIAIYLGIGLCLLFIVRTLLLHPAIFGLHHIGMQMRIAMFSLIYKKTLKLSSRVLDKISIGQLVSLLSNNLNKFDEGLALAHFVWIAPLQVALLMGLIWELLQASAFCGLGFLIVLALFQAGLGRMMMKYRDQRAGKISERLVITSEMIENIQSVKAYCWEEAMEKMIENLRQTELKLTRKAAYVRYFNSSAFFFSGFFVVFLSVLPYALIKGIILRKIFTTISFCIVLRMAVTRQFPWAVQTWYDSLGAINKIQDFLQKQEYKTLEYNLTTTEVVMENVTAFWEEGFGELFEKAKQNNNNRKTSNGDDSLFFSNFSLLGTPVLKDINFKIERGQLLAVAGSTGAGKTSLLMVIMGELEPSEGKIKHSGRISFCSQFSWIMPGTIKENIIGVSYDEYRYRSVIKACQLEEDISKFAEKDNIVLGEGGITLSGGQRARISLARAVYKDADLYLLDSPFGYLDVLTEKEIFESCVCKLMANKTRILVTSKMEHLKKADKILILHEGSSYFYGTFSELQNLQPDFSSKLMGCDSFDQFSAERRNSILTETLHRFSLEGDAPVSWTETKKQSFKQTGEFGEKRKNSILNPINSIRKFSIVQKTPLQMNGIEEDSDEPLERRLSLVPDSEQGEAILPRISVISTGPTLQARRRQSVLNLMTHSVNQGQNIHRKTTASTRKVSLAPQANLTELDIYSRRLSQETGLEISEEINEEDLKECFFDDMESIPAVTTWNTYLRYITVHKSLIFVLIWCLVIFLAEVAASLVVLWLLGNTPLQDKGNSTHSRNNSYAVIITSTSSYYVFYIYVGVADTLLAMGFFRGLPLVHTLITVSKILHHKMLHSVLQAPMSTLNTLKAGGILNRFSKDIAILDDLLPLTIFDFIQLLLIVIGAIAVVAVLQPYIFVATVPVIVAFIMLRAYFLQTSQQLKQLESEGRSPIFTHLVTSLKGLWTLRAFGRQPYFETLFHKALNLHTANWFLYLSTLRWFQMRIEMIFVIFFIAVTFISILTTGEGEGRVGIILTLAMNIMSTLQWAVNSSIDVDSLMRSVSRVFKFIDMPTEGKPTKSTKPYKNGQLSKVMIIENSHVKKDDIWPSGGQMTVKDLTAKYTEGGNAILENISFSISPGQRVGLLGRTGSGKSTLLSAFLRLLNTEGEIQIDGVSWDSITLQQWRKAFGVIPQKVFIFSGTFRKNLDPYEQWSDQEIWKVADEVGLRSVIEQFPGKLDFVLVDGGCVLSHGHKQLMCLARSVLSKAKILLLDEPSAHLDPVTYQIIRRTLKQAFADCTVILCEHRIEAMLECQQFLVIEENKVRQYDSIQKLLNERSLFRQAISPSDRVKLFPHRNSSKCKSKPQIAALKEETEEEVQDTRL

Row | SMILES | EC30
1 | COc1cccc(OC)c1Oc1cccc(S(=O)(=O)NC(=O)c2cccnc2N2CC(C)CC2(C)C)n1 (stereo not shown) [Compound 2309, N—[[6-(2,6-dimethoxyphenoxy)-2-pyridyl]sulfonyl]-2-(2,2,4-trimethylpyrrolidin-1-yl)pyridine-3-carboxamide] | < 3 µM
2 | COc1ccccc1CNc1cccc(S(=O)(=O)NC(=O)c2cccnc2N2CC(C)CC2(C)C)n1 (stereo not shown) [Compound 2310, N—[[6-[(2-methoxyphenyl)methylamino]-2-pyridyl]sulfonyl]-2-(2,2,4-trimethylpyrrolidin-1-yl)pyridine-3-carboxamide] | < 3 µM
3 | C[C@@H]1CN(c2nc(C3CCCOC3)ccc2C(=O)NS(=O)(=O)c2cccnc2N)C(C)(C)C1 (stereo partly drawn) [Compound 2311, N-[(2-amino-3-pyridyl)sulfonyl]-6-tetrahydropyran-3-yl-2-[(4S)-2,2,4-trimethylpyrrolidin-1-yl]pyridine-3-carboxamide] | < 3 µM
4 | CC1CN(c2ncc(-c3ccccc3Cl)cc2C(=O)NS(=O)(=O)c2cccc(N)n2)C(C)(C)C1 (stereo not shown) [Compound 2312, N-[(6-amino-2-pyridyl)sulfonyl]-5-(2-chlorophenyl)-2-(2,2,4-trimethylpyrrolidin-1-yl)pyridine-3-carboxamide] | < 3 µM
5 | Cc1cc(OC2CCCC2)cc(-c2cnc(N3CC(C)CC3(C)C)c(C(=O)NS(=O)(=O)c3cccc(N)n3)c2)c1 (stereo not shown) [Compound 2313, N-[(6-amino-2-pyridyl)sulfonyl]-5-[3-(cyclopentoxy)-5-methyl-phenyl]-2-(2,2,4-trimethylpyrrolidin-1-yl)pyridine-3-carboxamide] | < 3 µM
6 | CC1CN(c2ncccc2C(=O)NS(=O)(=O)c2cccc(Oc3ccc(N)cc3)n2)C(C)(C)C1 (stereo not shown) [Compound 2314, N—[[6-(4-aminophenoxy)-2-pyridyl]sulfonyl]-2-(2,2,4-trimethylpyrrolidin-1-yl)pyridine-3-carboxamide] | 3 to 10 µM
7 | C[C@@H]1CN(c2nc([C@H]3CC[C@@H](C(F)(F)F)CC3)ccc2C(=O)NS(=O)(=O)c2ccc[nH]c2=O)C(C)(C)C1 [Compound 2315, N-[(2-oxo-1H-pyridin-3-yl)sulfonyl]-6-[4-(trifluoromethyl)cyclohexyl]-2-[(4S)-2,2,4-trimethylpyrrolidin-1-yl]pyridine-3-carboxamide] | < 3 µM
8 | CC1CN(c2ncccc2C(=O)NS(=O)(=O)c2cccc(Nc3ccc(F)c(C#N)c3)n2)C(C)(C)C1 (stereo not shown) [Compound 2316, N—[[6-(3-cyano-4-fluoro-anilino)-2-pyridyl]sulfonyl]-2-(2,2,4-trimethylpyrrolidin-1-yl)pyridine-3-carboxamide] | < 3 µM
9 | CC1CN(c2ncccc2C(=O)NS(=O)(=O)c2cccc(OC3CC=CC3)n2)C(C)(C)C1 (stereo not shown) [Compound 2317, N-[(6-cyclopent-3-en-1-yloxy-2-pyridyl)sulfonyl]-2-(2,2,4-trimethylpyrrolidin-1-yl)pyridine-3-carboxamide] | < 3 µM
10 | CC1CN(c2ncccc2C(=O)NS(=O)(=O)c2cccc(N[C@H](C)C(C)C)n2)C(C)(C)C1 (stereo partly drawn) [Compound 2318, N—[[6-[[(1R)-1,2-dimethylpropyl]amino]-2-pyridyl]sulfonyl]-2-(2,2,4-trimethylpyrrolidin-1-yl)pyridine-3-carboxamide] | < 3 µM
11 | C[C@@H]1CN(c2nc(-c3ccc(N(C)C)nc3)ccc2C(=O)NS(=O)(=O)c2cccnc2N)C(C)(C)C1 [Compound 2319, N-[(2-amino-3-pyridyl)sulfonyl]-6-[6-(dimethylamino)-3-pyridyl]-2-[(4S)-2,2,4-trimethylpyrrolidin-1-yl]pyridine-3-carboxamide] | 3 to 10 µM
12 | Cc1cccc(Oc2cccc(S(=O)(=O)NC(=O)c3cccnc3N3CC(C)CC3(C)C)n2)c1 (stereo not shown) [Compound 2320, N—[[6-(3-methylphenoxy)-2-pyridyl]sulfonyl]-2-(2,2,4-trimethylpyrrolidin-1-yl)pyridine-3-carboxamide] | < 3 µM
13 | CC1CN(c2ncccc2C(=O)NS(=O)(=O)c2cccc(N3Cc4ccccc4C[C@H]3C(=O)O)n2)C(C)(C)C1 (stereo partly drawn) [Compound 2321, (3S)-2-[6-[[2-(2,2,4-trimethylpyrrolidin-1-yl)pyridine-3-carbonyl]sulfamoyl]-2-pyridyl]-3,4-dihydro-1H-isoquinoline-3-carboxylic acid] | 3 to 10 µM
14 | Cc1cc(-c2cnc(N3CC(C)CC3(C)C)c(C(=O)NS(=O)(=O)c3cccc(N)n3)c2)cc(C(C)(C)C)c1 (stereo not shown) [Compound 2322, N-[(6-amino-2-pyridyl)sulfonyl]-5-(3-tert-butyl-5-methyl-phenyl)-2-(2,2,4-trimethylpyrrolidin-1-yl)pyridine-3-carboxamide] | < 3 µM
15 | CC(C)COc1cc(F)cc(-c2ccc(C(=O)NS(=O)(=O)c3cccc(N)n3)c(N3CCC(O)CC3)n2)c1 [Compound 2323, N-[(6-amino-2-pyridyl)sulfonyl]-6-(3-fluoro-5-isobutoxy-phenyl)-2-(4-hydroxy-1-piperidyl)pyridine-3-carboxamide] | 3 to 10 µM
16 | CC1CN(c2ncccc2C(=O)NS(=O)(=O)c2cccc(N3CCOC(C)C3)n2)C(C)(C)C1 (stereo not shown) [Compound 2324, N—[[6-(2-methylmorpholin-4-yl)-2-pyridyl]sulfonyl]-2-(2,2,4-trimethylpyrrolidin-1-yl)pyridine-3-carboxamide] | 3 to 10 µM

Row | SMILES | EC30
17 | CCOCCOCCOc1ccn(-c2ccc(C(=O)NS(=O)(=O)c3cccnc3N)c(N3C[C@@H](C)CC3(C)C)n2)n1 [Compound 2326, N-[(2-amino-3-pyridyl)sulfonyl]-6-[3-[2-(2-ethoxyethoxy)ethoxy]pyrazol-1-yl]-2-[(4S)-2,2,4-trimethylpyrrolidin-1-yl]pyridine-3-carboxamide] | < 3 µM
18 | COc1ccc(-c2ccc(C(=O)NS(=O)(=O)N3CC[C@H](N)C3)c(N3C[C@@H](C)CC3(C)C)n2)cc1 [Compound 2327, N-[(3S)-3-aminopyrrolidin-1-yl]sulfonyl-6-(4-methoxyphenyl)-2-[(4S)-2,2,4-trimethylpyrrolidin-1-yl]pyridine-3-carboxamide] | 3 to 10 µM
19 | CC(=O)c1ccc(Nc2cccc(S(=O)(=O)NC(=O)c3cccnc3N3CC(C)CC3(C)C)n2)cc1 (stereo not shown) [Compound 2328, N—[[6-(4-acetylanilino)-2-pyridyl]sulfonyl]-2-(2,2,4-trimethylpyrrolidin-1-yl)pyridine-3-carboxamide] | 3 to 10 µM
20 | CC1CN(c2ncccc2C(=O)NS(=O)(=O)c2cccc(OCCC3CCOCC3)n2)C(C)(C)C1 (stereo not shown) [Compound 2329, N—[[6-(2-tetrahydropyran-4-ylethoxy)-2-pyridyl]sulfonyl]-2-(2,2,4-trimethylpyrrolidin-1-yl)pyridine-3-carboxamide] | < 3 µM
21 | CC1CCN(c2cccc(S(=O)(=O)NC(=O)c3cccnc3N3CC(C)CC3(C)C)n2)CC1 (stereo not shown) [Compound 2330, N—[[6-(4-methyl-1-piperidyl)-2-pyridyl]sulfonyl]-2-(2,2,4-trimethylpyrrolidin-1-yl)pyridine-3-carboxamide] | < 3 µM
22 | Cc1cccc(C)c1Oc1nc(-c2cc(F)cc(OCC(C)C)c2)ccc1C(=O)NS(=O)(=O)c1ccc(O)c(N)n1 [Compound 2331, N-[(6-amino-5-hydroxy-2-pyridyl)sulfonyl]-2-(2,6-dimethylphenoxy)-6-(3-fluoro-5-isobutoxy-phenyl)pyridine-3-carboxamide] | < 3 µM
23 | CC1CN(c2ncccc2C(=O)NS(=O)(=O)c2cccc(Oc3cccc(F)c3)n2)C(C)(C)C1 (stereo not shown) [Compound 2332, N—[[6-(3-fluorophenoxy)-2-pyridyl]sulfonyl]-2-(2,2,4-trimethylpyrrolidin-1-yl)pyridine-3-carboxamide] | < 3 µM
24 | CC1CN(c2ncccc2C(=O)NS(=O)(=O)c2cccc(Oc3cccc4cccnc34)n2)C(C)(C)C1 (stereo not shown) [Compound 2333, N—[[6-(8-quinolyloxy)-2-pyridyl]sulfonyl]-2-(2,2,4-trimethylpyrrolidin-1-yl)pyridine-3-carboxamide] | 3 to 10 µM
25 | COc1cc(F)c(F)cc1-c1ccc(C(=O)NS(=O)(=O)c2cccnc2N)c(N2C[C@@H](C)CC2(C)C)n1 [Compound 2334, N-[(2-amino-3-pyridyl)sulfonyl]-6-(4,5-difluoro-2-methoxy-phenyl)-2-[(4S)-2,2,4-trimethylpyrrolidin-1-yl]pyridine-3-carboxamide] | < 3 µM
26 | CC1CN(c2ncccc2C(=O)NS(=O)(=O)c2cccc(NCCCCNC(=O)OC(C)(C)C)n2)C(C)(C)C1 (stereo not shown) [Compound 2335, tert-butyl N—[4-[[6-[[2-(2,2,4-trimethylpyrrolidin-1-yl)pyridine-3-carbonyl]sulfamoyl]-2-pyridyl]amino]butyl]carbamate] | 3 to 10 µM
27 | CC1CCC(Oc2cccc(S(=O)(=O)NC(=O)c3cccnc3N3CC(C)CC3(C)C)n2)CC1 (stereo not shown) [Compound 2336, N—[[6-(4-methylcyclohexoxy)-2-pyridyl]sulfonyl]-2-(2,2,4-trimethylpyrrolidin-1-yl)pyridine-3-carboxamide] | < 3 µM
28 | CC1CN(c2ncc(-c3ccc(C(F)(F)F)cc3)cc2C(=O)NS(=O)(=O)c2cccc(N)n2)C(C)(C)C1 (stereo not shown) [Compound 2337, N-[(6-amino-2-pyridyl)sulfonyl]-5-[4-(trifluoromethyl)phenyl]-2-(2,2,4-trimethylpyrrolidin-1-yl)pyridine-3-carboxamide] | < 3 µM
29 | CC1CN(c2ncccc2C(=O)NS(=O)(=O)c2cccc(Oc3cccc4[nH]ccc34)n2)C(C)(C)C1 (stereo not shown) [Compound 2338, N—[[6-(1H-indol-4-yloxy)-2-pyridyl]sulfonyl]-2-(2,2,4-trimethylpyrrolidin-1-yl)pyridine-3-carboxamide] | < 3 µM
30 | Cc1cccc(-c2ccc(C(=O)NS(=O)(=O)N3CC[C@H](N)C3)c(N3C[C@@H](C)CC3(C)C)n2)c1 [Compound 2339, N-[(3S)-3-aminopyrrolidin-1-yl]sulfonyl-6-(m-tolyl)-2-[(4S)-2,2,4-trimethylpyrrolidin-1-yl]pyridine-3-carboxamide] | < 3 µM
31 | CC1CN(c2ncccc2C(=O)NS(=O)(=O)c2cccc(N3CC4CCCC4C3)n2)C(C)(C)C1 (stereo not shown) [Compound 2340, N—[[6-(3,3a,4,5,6,6a-hexahydro-1H-cyclopenta[c]pyrrol-2-yl)-2-pyridyl]sulfonyl]-2-(2,2,4-trimethylpyrrolidin-1-yl)pyridine-3-carboxamide] | < 3 µM

Reference: patent publication US10758534B2 (Vertex Pharmaceuticals Incorporated, priority 2014, dated 2020)
